Measured values published in patent US20230278972A1, “SUBSTITUTED HALOALKYL SULFONANILIDE HERBICIDES” (FMC Corporation, priority 2020, published 2023).

Experiments:
Format in all cases: in vivo
[1] = tested on: ragweed (common ragweed, Ambrosia artemisiifolia); test: Test A1 preemergence, ragweed
In short: (§1)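 Test compounds were formulated in a non-phytotoxic solvent mixture containing a surfactant. For preemergence, seeds sown in a loam soil–sand blend received a directed soil spray. For postemergence, potted plants in the same soil, 2 to 10 cm tall at the one- to two-leaf stage, were sprayed.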

[2] = tested on: blackgrass (Alopecurus myosuroides); test: Test A1 preemergence, blackgrass
In short: as §1

[3] = tested on: wheat (Triticum aestivum); test: Test A1 postemergence, wheat; conditions: for Wheat plant response rating: postemergence; for Plant response rating, Wheat: Postemergence
In short: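 Pre: seeds in loam/sand blend, directed soil spray. Post: potted plants, same soil, 2–10 cm, 1–2 leaf stage. Chemicals in non-phytotoxic solvent + surfactant for both.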

[4] = tested on: Pigweed, Palmer (palmer amaranth, palmer pigweed, Amaranthus palmeri); test: Test A1 postemergence, Pigweed, Palmer; conditions: for Pigweed, Palmer plant response rating: postemergence; for Plant response rating, Pigweed, Palmer: Postemergence
In short: as §1

[5] = 31 g ai/ha, 0 to 100 scale (0 no effect, 100 complete control)
[6] = 125 g ai/ha, 0 to 100 scale, 0 no effect, 100 complete control
[7] = 125 g ai/ha, 0 to 100 scale (0 no effect, 100 complete control), 10 days
[8] = 125 g ai/ha, 0 to 100 scale (0 no effect, 100 complete control)
[9] = 31 g ai/ha, 0 to 100 scale (0 no effect, 100 complete control), 10 days

Structure (SMILES)	Plant response rating, Ragweed [1, 5]	Plant response rating, Ragweed [1, 6]	Plant response rating, Blackgrass [2, 5]	Plant response rating, Blackgrass [2, 6]	Wheat plant response rating [3, 5]	Plant response rating, Wheat [3, 7]	Pigweed, Palmer plant response rating [4, 5]	Plant response rating, Pigweed, Palmer [4, 7]	Plant response rating, Wheat ([3]; 125 g ai/ha, 0 to 100 scale)	Plant response rating, Pigweed, Palmer ([4]; 125 g ai/ha, 0 to 100 scale)	Plant response rating, Ragweed [1, 8]	Plant response rating, Wheat [3, 9]	Plant response rating, Pigweed, Palmer [4, 9]
Cc1cc(C)c(N2CCC3(CCC(C)CC3)C2=O)cc1NS(=O)(=O)C(F)(F)F (centres unmarked) [Compound 402]	20	50	70	80	0	0	20	70	–	–	–	–	–
CCOC(=O)N(c1cc(C(=O)N2C[C@@H](C)O[C@H](C)C2)c(C)c(C)c1C)S(=O)(=O)C(F)(F)F (relative stereo) [Compound 374]	0	70	0	0	20	–	10	–	50	30	–	–	–
Cc1cc(C)c(N2CC3(CCCCC3)CC2=O)cc1NS(=O)(=O)C(F)(F)F [Compound 392]	0	0	10	40	0	30	0	40	–	–	–	–	–
CCc1cc(C)c(N(COC(=O)C(C)(C)C)S(=O)(=O)C(F)(F)F)cc1C1=NOC2CCCC12 (centres unmarked) [Compound 378]	0	0	–	–	30	–	0	–	60	10	–	–	–
Cc1cc(Cl)c(NS(=O)(=O)C(F)(F)F)cc1N1CC2(CCCCC2)OC1=O [Compound 394]	40	90	0	70	10	40	50	50	–	–	–	–	–
Cc1cc(C)c(C2=NOC(C(C)C)C2)cc1NS(=O)(=O)C(F)(F)F (centres unmarked) [Compound 381]	0	0	–	–	20	70	0	10	–	–	–	–	–
Cc1cc(C)c(N2Cc3cccc(C)c3C2=O)cc1NS(=O)(=O)Cl [Compound 408]	–	–	90	100	60	70	30	50	–	–	50	–	–
Cc1cc(C)c(C2=NOC3OCCCC23)cc1NS(=O)(=O)C(F)(F)F (centres unmarked) [Compound 372]	0	70	0	40	10	–	30	–	70	40	–	–	–
CCOc1cccc2c1C(=O)N(c1cc(N(COC(=O)C(C)(C)C)S(=O)(=O)Cl)c(C)cc1C)C2 [Compound 414]	–	–	–	–	0	0	0	10	–	–	20	–	–
Cc1cc(C)c(N(COC(=O)C(C)(C)C)S(=O)(=O)C(F)(F)F)cc1N1CCC2(CCC(C(F)(F)F)CC2)C1=O (centres unmarked) [Compound 403]	0	20	0	0	0	0	0	30	–	–	–	–	–
Cc1cc(Cl)c(NS(=O)(=O)C(F)(F)F)cc1N1CCC2(CCCCC2)C1=O [Compound 393]	40	90	70	90	30	60	0	80	–	–	–	–	–
Cc1c(NS(=O)(=O)C(F)(F)F)cc(C2=NOC3(CCCC3)C2)c(C)c1C [Compound 380]	0	40	–	–	0	80	0	10	–	–	–	–	–
Cc1c(C2=NOC3(CCCC3)C2)cc(N(COC(=O)C(C)(C)C)S(=O)(=O)C(F)(F)F)c(C)c1C [Compound 382]	0	0	–	–	0	60	0	20	–	–	–	–	–
COC1CCC2(CC1)CCN(c1cc(NS(=O)(=O)C(F)(F)F)c(C)cc1C)C2=O (centres unmarked) [Compound 398]	20	80	60	90	60	70	50	80	–	–	–	–	–
CCOC(=O)N(c1cc(C2=NOC3CCCC23)c(CC)cc1C)S(=O)(=O)C(F)(F)F (centres unmarked) [Compound 379]	0	0	–	–	20	–	0	–	70	10	–	–	–
Cc1cc(C)c(N(S(=O)(=O)C(F)(F)F)S(=O)(=O)C(F)(F)F)cc1N1CCC2(CCC(C(F)(F)F)CC2)C1=O (centres unmarked) [Compound 399]	0	60	20	60	60	60	30	70	–	–	–	–	–
Cc1ccc(C2=NOC3CCCC23)cc1NS(=O)(=O)C(F)(F)F (centres unmarked) [Compound 377]	0	0	–	–	0	–	0	–	20	0	–	–	–
CCOC(=O)N(c1cc(C(=O)N2CCSCC2)c(C)c(C)c1C)S(=O)(=O)C(F)(F)F [Compound 286]	0	10	–	–	–	–	–	–	20	30	–	0	0
Cc1c(C(=O)N2C[C@@H](C)O[C@H](C)C2)cc(N(COC(=O)C(C)(C)C)S(=O)(=O)C(F)(F)F)c(C)c1C (relative stereo) [Compound 373]	50	50	30	30	0	–	0	–	70	10	–	–	–
Cc1cc(C)c(N2Cc3cccc(Br)c3C2=O)cc1NS(=O)(=O)Cl [Compound 415]	–	–	–	–	20	70	0	20	–	–	90	–	–
COc1cccc2c1C(=O)N(c1cc(N(COC(=O)C(C)(C)C)S(=O)(=O)Cl)c(C)cc1C)C2 [Compound 413]	–	–	20	20	0	0	20	30	–	–	90	–	–
